± gives the expanded uncertainty stated by the source.
Assay: activity coefficient (dimensionless); of the first substance listed, at infinite dilution; xn = mol fraction of the nth substance listed
Settings: Liquid, Chromatography, x1 = 0

Row | SMILES | activity coefficient (323.15 K) | activity coefficient (333.15 K) | activity coefficient (343.15 K)
1 | CCCCCCCC [octane] + CCCOC[n+]1ccn(Cc2ccccc2)c1.O=S(=O)([N-]S(=O)(=O)C(F)(F)F)C(F)(F)F | 16.1 ± 1.1 | 12.9 ± 0.88 | 12.5 ± 0.85
2 | CCC(C)=O [butanone] + N#C[N-]C#N.N#C[N-]C#N.c1ccc(Cn2cc[n+](COCCCOC[n+]3ccn(Cc4ccccc4)c3)c2)cc1 | 1.78 ± 0.12 | 1.55 ± 0.1 | 1.41 ± 0.09
3 | CCc1ccccc1 [ethylbenzene] + CCCOC[n+]1ccn(Cc2ccccc2)c1.O=S(=O)([N-]S(=O)(=O)C(F)(F)F)C(F)(F)F | 1.5 ± 0.1 | 1.33 ± 0.09 | 1.32 ± 0.09
4 | Cc1cccc(C)c1 [1,3-dimethylbenzene] + CCCCCCCCn1cc[n+](COCCCOC[n+]2ccn(CCCCCCCC)c2C)c1C.N#C[N-]C#N.N#C[N-]C#N | 1.36 ± 0.09 | 1.37 ± 0.09 | 1.39 ± 0.09
5 | Cc1cccc(C)c1 [1,3-dimethylbenzene] + CCCCCCCCn1cc[n+](COCCC)c1C.O=S(=O)([N-]S(=O)(=O)C(F)(F)F)C(F)(F)F | 1.02 ± 0.06 | 1 ± 0.06 | 1.01 ± 0.06
6 | CCCCCCCCCCCC [dodecane] + CCCOC[n+]1ccn(C)c1.O=S(=O)([N-]S(=O)(=O)C(F)(F)F)C(F)(F)F | 132 ± 9.1 | 118 ± 8.1 | 105 ± 7.2
7 | Cc1ccccc1 [toluene] + Cn1cc[n+](COCCCOC[n+]2ccn(C)c2)c1.N#C[N-]C#N.N#C[N-]C#N | 5.63 ± 0.38 | 5.58 ± 0.38 | 5.49 ± 0.37
8 | CCCCCCCCC [nonane] + CCCOC[n+]1ccn(C)c1.F[B-](F)(F)F | 553 ± 38 | 384 ± 26 | 337 ± 23
9 | CCO [ethanol] + CCCCCCCCn1cc[n+](COCCCOC[n+]2ccn(CCCCCCCC)c2C)c1C.N#C[N-]C#N.N#C[N-]C#N | 0.3 ± 0.03 | 0.29 ± 0.03 | 0.29 ± 0.03
10 | CC1CCCCC1 [methylcyclohexane] + CCCCCCCCn1cc[n+](COCCCOC[n+]2ccn(CCCCCCCC)c2C)c1C.O=S(=O)([N-]S(=O)(=O)C(F)(F)F)C(F)(F)F.O=S(=O)([N-]S(=O)(=O)C(F)(F)F)C(F)(F)F | 2.94 ± 0.2 | 2.71 ± 0.18 | 2.73 ± 0.19
11 | CC(C)CO [2-methyl-1-propanol] + CN(C)c1cc[n+](COCCCOC[n+]2ccc(N(C)C)cc2)cc1.O=S(=O)([N-]S(=O)(=O)C(F)(F)F)C(F)(F)F.O=S(=O)([N-]S(=O)(=O)C(F)(F)F)C(F)(F)F | 1.85 ± 0.12 | 1.66 ± 0.11 | 1.5 ± 0.1
12 | Cc1ccccc1C [1,2-dimethylbenzene] + CCCCCCCCn1cc[n+](COCCCOC[n+]2ccn(CCCCCCCC)c2C)c1C.O=S(=O)([N-]S(=O)(=O)C(F)(F)F)C(F)(F)F.O=S(=O)([N-]S(=O)(=O)C(F)(F)F)C(F)(F)F | 0.68 ± 0.05 | 0.66 ± 0.05 | 0.66 ± 0.05
13 | CCCCCCC [heptane] + CCCOC[n+]1ccn(C)c1.O=S(=O)([N-]S(=O)(=O)C(F)(F)F)C(F)(F)F | 22.9 ± 1.6 | 20.4 ± 1.4 | 17.1 ± 1.2
14 | CO [methanol] + Cn1cc[n+](COCCCOC[n+]2ccn(C)c2)c1.N#C[N-]C#N.N#C[N-]C#N | 0.38 ± 0.03 | 0.38 ± 0.03 | 0.37 ± 0.03
15 | Cc1ccccc1C [1,2-dimethylbenzene] + CCCOC[n+]1ccn(Cc2ccccc2)c1.N#C[N-]C#N | 3.05 ± 0.21 | 3.03 ± 0.21 | 3.01 ± 0.2
16 | CCCCCC [hexane] + CN(C)c1cc[n+](COCCCOC[n+]2ccc(N(C)C)cc2)cc1.O=S(=O)([N-]S(=O)(=O)C(F)(F)F)C(F)(F)F.O=S(=O)([N-]S(=O)(=O)C(F)(F)F)C(F)(F)F | 7.4 ± 0.5 | 5.82 ± 0.4 | 4.7 ± 0.32
17 | C=CCCCC [hex-1-ene] + CCCCCCCCn1cc[n+](COCCCOC[n+]2ccn(CCCCCCCC)c2C)c1C.N#C[N-]C#N.N#C[N-]C#N | 4.93 ± 0.34 | 4.41 ± 0.3 | 
18 | CC(C)OC(C)C [diisopropyl ether] + CCCOC[n+]1ccn(Cc2ccccc2)c1.F[B-](F)(F)F | 17.6 ± 1.2 | 14.8 ± 1 | 
19 | CCCCCCCCCCC [undecane] + CCCOC[n+]1ccc(N(C)C)cc1.O=S(=O)([N-]S(=O)(=O)C(F)(F)F)C(F)(F)F | 55.7 ± 3.8 | 52.9 ± 3.6 | 46.6 ± 3.2
20 | Cc1ccccc1 [toluene] + CCCCCCCCn1cc[n+](COCCC)c1C.N#C[N-]C#N | 1.43 ± 0.09 | 1.22 ± 0.08 | 1.15 ± 0.07
21 | CCCCCCCCC [nonane] + CCCCCCCCn1cc[n+](COCCC)c1C.O=S(=O)([N-]S(=O)(=O)C(F)(F)F)C(F)(F)F | 7.93 ± 0.54 | 7.42 ± 0.51 | 6.93 ± 0.47

From the NIST ThermoML archive (doi:10.1016/j.fluid.2014.11.020)
